{"source": "patent US11466067B2", "about": "(priority 2019, dated 2022)", "molecules": {"B1": {"name": "Drug Substance (DS) (protein)", "chain": "MVEEALNIFDECRSPCSLTPEPGKPIQSKLSIPSDVVLDEGVLYYSMTINDEQNDIKDEDKGESIITIGEFATVRATRHYVNQDAPFGVIHLDITTENGTKTYSYNRKEGEFAINWLVPIGEDSPASIKISVDELDQQRNIIEVPKLYSIDLDNQTLEQWKTQGNVSFSVTRPEHNIAISWPSVSYKAAQKEGSRHKRWAHWHTGLALCWLVPMDAIYNYITQQNCTLGDNWFGGSYETVAGTPKVITVKQGIEQKPVEQRIHFSKGNAMSALAAHRVCGVPLETLARSRKPRDLTDDLSCAYQAQNIVSLFVATRILFSHLDSVFTLNLDEQEPEVAERLSDLRRINENNPGMVTQVLTVARQIYNDYVTHHPGLTPEQTSAGAQAGGGGSGGGGSGGGGSPGQGTQSENSCTHFPGNLPNMLRDLRDAFSRVKTFFQMKDQLDNLLLKESLLEDFKGYLGCQALSEMIQFYLEEVMPQAENQDPDIKAHVNSLGENLKTLRLRLRRCHRFLPCENKSKAVEQVKNAFNKLQEKGIYKAMSEFDIFINYIEAYMTMKIRN", "modifications": "dimer"}}, "key": {"[1]": {"tested_on": "circulating cytokines, chemokines, growth factors", "format": "in vivo, mice", "conditions": "mouse, in vivo"}, "[2]": {"assay": "Salt screening for dimer stability (SE-HPLC)", "format": "physicochemical", "conditions": "buffer exchange, data not shown", "protocol": "Formulations were prepared with the delivery construct at 20 g/Lin 10 mM Sodium Phosphate at pH 7.0 with the salts and salt concentrations as indicated in Table 53. The percentage of the IL-10 delivery construct present in dimer form, monomer form, and high molecular weight aggregates (HMW Agg) was assessed by size exclusion HPLC as indicated previously."}, "[3]": {"assay": "Single oral capsule dose in NHP: plasma caffeine by LC-MS/MS", "format": "in vivo, Macaca fascicularis", "protocol": "In order to quantitate plasma caffeine levels, an LC-MS/MS detection system was employed. A 25-μL matrix aliquot was fortified with 25 μL of 2.00 μg/mL caffeine-trimethyl-^13C3 internal standard working solution. Analytes were isolated through supported liquid extraction (SLE). A portion of the eluate was transferred and evaporated under a nitrogen stream at approximately 45° C., and the remaining residue reconstituted with 500 μL of water/acetonitrile (95:5, v/v). The final extract was analyzed via HPLC with MS/MS detection using positive ion electrospray and reverse phase chromatography. Caffeine concentration was determined using similarly run calibration controls.\nIL-10 delivery construct dosing at multiple fixed doses in non-naïve adult male Macaca fascicularis was conducted by Valley Biosystems (West Sacramento, Calif.). […] Dosing groups are described in TABLE 45.\nBlood samples were collected in K2EDTA tubes from each animal pre-dose and at 0.5, 1, 2, 3, 4, 5, 6, 7, 8, and 24 hours post-dose. Animals were returned to home cages following the 2-hour sample collection. Following physical restraint, blood samples were collected via direct venous puncture using a cephalic, femoral or saphenous vein, which were processed to plasma and stored frozen at −60° C. until shipment."}, "[4]": {"assay": "Surfactant evaluation under shear stress (visual, turbidity, SEC-HPLC)", "format": "physicochemical", "conditions": "for SEC-HPLC forms of construct (HMW, dimer, monomer) with surfactant: 1×PBS, before/after vortexing", "protocol": "Following vortexing, the solution was visually inspected. The sample without a surfactant was slightly hazy while the samples with the surfactant were clear after vortexing. The turbidity (340-360 nm) of the solution was assessed after vortexing.\nSEC-HPLC was carried out on the IL-10 delivery construct formulations before (FIG. 93) and after (FIG. 94) vortexing (TABLE 48)."}, "[5]": {"conditions": "initial liquid formulation screen"}, "STAT3 phosphorylation": {"tested_on": "STAT3 phosphorylation", "assay": "pSTAT3 and hIL-10 immunofluorescence in intestine 40 min post oral gavage", "format": "in vivo, rat", "protocol": "This observation is consistent with findings in mice that intestinal epithelial cells can express IL-10 receptors at their apical surface under certain conditions associated with development and maintenance of barrier function. […] In order to quantify how test articles affected intestinal IL-10 signal transduction pathways, image analysis was performed: high-throughput image batches were collected, segmented by epithelial versus Lamina propria localization, and then by cellular features."}, "STAT3": {"tested_on": "STAT3", "conditions": "20 min stimulation"}, "STAT3, IL-1Ra": {"tested_on": "STAT3, IL-1Ra", "assay": "pSTAT3/STAT3 and systemic IL-1Ra in non-inflamed mice (ELISA MSD)", "format": "in vivo"}, "[6]": {"assay": "Intraluminal injection in T-cell transfer colitis model, rhIL-10 ELISA", "format": "in vivo, BALB/c and SCID mice", "conditions": "159 pmoles intraluminal", "protocol": "This study was conducted to examine the potential for the carrier protein to transport rhIL-10 from the intestinal lumen into the submucosal region in inflamed intestinal tissue. The T lymphocyte (T cell) transfer model was used as it is a well-established model of induced chronic colitis in mice and presents many of the essential immunological hallmarks observed in IBD patients. Nine BALB/c mice and twelve SCID mice, including nine with the colitis-like model of inflammation, were dosed with 20 μl of test article via intraluminal injection into the distal ileum and the proximal, middle and distal colon.\nPBS vehicle was administered to healthy BALB/c mice and both healthy and induced colitis SCID mice (n=3/group). In each group, two mice were terminated 10 minutes after intraluminal injections, and one was terminated 40 minutes after intraluminal injections. Intestinal tissue and serum were collected. Collected tissue was fixed, embedded, sectioned and H&E stained for histological assessment of inflammatory status. ELISA analysis to measure rhIL 10 was performed on lysates prepared from intestinal tissue and serum (FIGS. 106A-106D)."}, "[7]": {"assay": "Dimer purity during compaction/granulation (SEC)", "format": "physicochemical", "conditions": "slugging/granulation formulation intermediates", "protocol": "The compatibility of the IL-10 delivery construct was evaluated for the initial steps of tablet formation. Blending and compaction processes were conducted. Both roller compaction and slugging was conducted, with subsequent milling to granules in each case. In order to explore excipient functionality and compatibility, different excipients were included in the three formulations.\nRoller compaction was conducted at 2 forces, and the resulting ribbons were individually granulated. Materials were reconstituted in PBS at 0.65 mg/mL SEQ ID NO: 5 and filtered with 0.2 um filter (Advantec) before SEC analysis. Samples were also incubated at 40° C. for two weeks before reconstitution and analysis.\nThe same analysis was conducted for the intermediates generated in the slugging/granulation process (TABLE 30). As well as the different compaction method, the slugging/granulation batch differed in binder and lubricant composition."}}, "data": [{"molecule": "Nc1ccc(O)c(C(=O)O)c1", "note": "[5-ASA, 5-aminosalicylic acid, reference compound]", "values": [{"measurement": "oxazolone-induced increase in plasma GCSF/CSF3", "setting": "[1]", "result": "attenuated"}]}, {"molecule": "N.N.O=S(=O)(O)O", "note": "[NH4SO4, ammonium sulfate]", "values": [{"measurement": "behaviour of construct at higher salt concentrations", "setting": "[2]", "result": "precipitate during buffer exchange"}]}, {"molecule": "O=S(=O)([O-])[O-].[Na+].[Na+]", "note": "[Na2SO4, sodium sulfate]", "values": [{"measurement": "behaviour of construct at higher salt concentrations", "setting": "[2]", "result": "precipitate during buffer exchange"}]}, {"molecule": "Cn1c(=O)c2c(ncn2C)n(C)c1=O", "note": "[caffeine]", "values": [{"measurement": "plasma caffeine Tmax", "setting": "[3]; all doses", "result": 4, "unit": "hours post dose"}, {"measurement": "time at which absorption of caffeine was observable (capsule opening)", "setting": "[3]; cynomolgus monkey, in vivo", "result": "2-3 hours post dose"}]}, {"molecule": "poloxamer 188", "values": [{"measurement": "SEC-HPLC forms of construct (HMW, dimer, monomer) with surfactant", "setting": "[4]", "result": "seemed to stabilize the IL-10 delivery construct"}, {"measurement": "aggregation of target construct under shear stress", "setting": "[5]", "result": "reduced aggregation"}]}, {"molecule": "polysorbate 20", "values": [{"measurement": "turbidity (340-360 nm) after vortexing", "setting": "[4]; 0.1% in 1×PBS", "result": "increase in absorbance was also observed"}, {"measurement": "SEC-HPLC forms of construct (HMW, dimer, monomer) with surfactant", "setting": "[4]", "result": "most amount of monomer before vortexing"}]}, {"molecule": "polysorbate 80", "values": [{"measurement": "SEC-HPLC forms of construct (HMW, dimer, monomer) with surfactant", "setting": "[4]", "result": "increase in HMW aggregates and monomers"}]}, {"molecule": "rhIL-10: recombinant human IL-10 (SEQ ID NO: 2), commercial preparation used as comparator", "values": [{"measurement": "hIL-10 and pSTAT3 in intestinal tissue", "setting": "STAT3 phosphorylation", "result": "pSTAT3 induction in enterocytes but not in cells within the Lamina propria"}, {"measurement": "amplitude of pSTAT3/total STAT3", "setting": "STAT3", "result": 2.19, "unit": "%"}, {"measurement": "increase in ratio of pSTAT3 to total STAT3", "setting": "STAT3, IL-1Ra; construct 1 mg/kg, rhIL-10 0.9 mg/kg (equimolar), non-inflamed colon tissue", "result": "did not significantly alter"}, {"measurement": "increase of systemic IL-1Ra", "setting": "STAT3, IL-1Ra; construct 10 mg/kg, rhIL-10 3 mg/kg (equimolar)", "result": "did not significantly increase"}, {"measurement": "rhIL-10 in serum of inflamed animals", "setting": "[6]", "result": "minimal amounts"}]}, {"molecule": "B1", "values": [{"measurement": "Purity (dimer purity)", "setting": "[7]", "result": 81.2}]}]}
